Data taken from US8372845B2, “Pyrazine derivatives as enac blockers” (Novartis AG, priority 2010, dated 2013).

Assays:
[1] = Stability in human plasma; format: in vitro ADME; conditions: pooled human plasma (lithium heparin), 1 μM compound, 37° C., 1 hour incubation
Protocol: The stability of the compounds of the invention in human plasma may be measured as follows:
Stability in Human Plasma
Blood was taken from healthy volunteers in lithium heparin tubes and plasma was prepared by centrifugal separation of blood cells at 1500 g. Plasma from at least 3 individuals was pooled and used for compound stability determination.
Compounds were prepared in 100% DMSO at a concentration of 10 mM and serially diluted to a concentration of 100 μM. Incubations were performed at a final concentration of 1 μM and were initiated by addition of 3 μl of 100 μM compound stock solution into 297 μl plasma, pre-warmed in a water bath to 37° C., followed by brief vortex mixing. 50 μl aliquots of plasma were removed at 4 timepoints over a 1 hour incubation period and quenched immediately by protein precipitation achieved by addition of the aliquot of plasma to a pre-prepared 96 well plate containing 150 μl of acetonitrile containing an appropriate internal standard. Acetonitrile quenched samples were vortex mixed followed by centrifugation for 20 minutes at 1500 g to remove the precipitated proteins. Initial compound levels (at time=0 minutes) was established by spiking compound into pre-quenched plasma at the same concentration as used in the incubation. The supernatant was then removed, diluted 1:1 with water and analysed for compound remaining by liquid chromatography-tandem mass spectrometry (Waters Acquity HPLC, Applied Biosystems API4000). The plasma elimination rate constant of the compound was calculated by fitting the peak area ratio of compound:internal standard to an exponential decay function and the half life calculated by division of the natural log of 2 by the elimination rate constant (Microsoft Excel).

[2] = biological target: T1, epithelial sodium channel (ENaC) (Homo sapiens, UniProt P37088+P51168+P51170); assay: Short circuit current (ISC) measurements in Human Bronchial Epithelial cells (HBEC-ENaC); format: cell-based; conditions: inhibition of amiloride-sensitive ISC, HBECs at air-liquid interface, Ussing chamber, apical addition
T1 construct: host or cells: primary Human Bronchial Epithelial cells (HBECs), differentiated at air-liquid interface
T1 sequence (P37088 1-669): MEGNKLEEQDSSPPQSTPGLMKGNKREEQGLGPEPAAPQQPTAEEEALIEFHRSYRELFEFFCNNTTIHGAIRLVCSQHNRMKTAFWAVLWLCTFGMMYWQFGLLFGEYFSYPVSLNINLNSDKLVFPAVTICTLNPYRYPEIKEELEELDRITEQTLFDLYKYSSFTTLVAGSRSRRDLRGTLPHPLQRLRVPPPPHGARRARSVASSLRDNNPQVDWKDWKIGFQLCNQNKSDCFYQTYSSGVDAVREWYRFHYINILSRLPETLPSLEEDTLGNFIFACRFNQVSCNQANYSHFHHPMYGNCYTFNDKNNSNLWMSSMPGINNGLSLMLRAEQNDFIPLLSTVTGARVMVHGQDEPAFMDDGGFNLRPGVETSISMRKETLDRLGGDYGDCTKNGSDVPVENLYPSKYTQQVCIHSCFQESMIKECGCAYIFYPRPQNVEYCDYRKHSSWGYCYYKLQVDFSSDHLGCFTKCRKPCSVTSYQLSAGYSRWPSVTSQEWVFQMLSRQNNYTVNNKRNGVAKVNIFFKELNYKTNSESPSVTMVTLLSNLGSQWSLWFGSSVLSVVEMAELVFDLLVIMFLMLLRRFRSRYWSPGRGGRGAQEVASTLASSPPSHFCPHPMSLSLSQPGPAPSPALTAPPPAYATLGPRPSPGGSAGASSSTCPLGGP
T1 sequence (P51168 1-640): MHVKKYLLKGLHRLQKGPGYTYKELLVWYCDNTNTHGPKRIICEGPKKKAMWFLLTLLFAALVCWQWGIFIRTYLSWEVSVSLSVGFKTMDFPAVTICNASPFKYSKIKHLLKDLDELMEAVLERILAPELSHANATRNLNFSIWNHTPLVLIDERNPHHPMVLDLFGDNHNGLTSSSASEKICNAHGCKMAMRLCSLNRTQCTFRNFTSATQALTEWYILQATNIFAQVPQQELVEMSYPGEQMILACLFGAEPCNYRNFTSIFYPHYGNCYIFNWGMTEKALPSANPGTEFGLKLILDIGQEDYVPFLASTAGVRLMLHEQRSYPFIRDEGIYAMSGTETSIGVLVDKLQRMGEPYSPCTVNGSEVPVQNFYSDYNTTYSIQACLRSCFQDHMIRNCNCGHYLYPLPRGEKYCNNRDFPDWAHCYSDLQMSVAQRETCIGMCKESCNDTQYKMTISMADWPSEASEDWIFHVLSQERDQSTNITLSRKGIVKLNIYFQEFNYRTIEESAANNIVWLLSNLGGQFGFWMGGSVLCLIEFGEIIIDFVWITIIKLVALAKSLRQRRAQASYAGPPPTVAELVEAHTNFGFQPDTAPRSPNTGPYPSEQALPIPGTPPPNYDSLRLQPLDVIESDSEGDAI
T1 sequence (P51170 1-649): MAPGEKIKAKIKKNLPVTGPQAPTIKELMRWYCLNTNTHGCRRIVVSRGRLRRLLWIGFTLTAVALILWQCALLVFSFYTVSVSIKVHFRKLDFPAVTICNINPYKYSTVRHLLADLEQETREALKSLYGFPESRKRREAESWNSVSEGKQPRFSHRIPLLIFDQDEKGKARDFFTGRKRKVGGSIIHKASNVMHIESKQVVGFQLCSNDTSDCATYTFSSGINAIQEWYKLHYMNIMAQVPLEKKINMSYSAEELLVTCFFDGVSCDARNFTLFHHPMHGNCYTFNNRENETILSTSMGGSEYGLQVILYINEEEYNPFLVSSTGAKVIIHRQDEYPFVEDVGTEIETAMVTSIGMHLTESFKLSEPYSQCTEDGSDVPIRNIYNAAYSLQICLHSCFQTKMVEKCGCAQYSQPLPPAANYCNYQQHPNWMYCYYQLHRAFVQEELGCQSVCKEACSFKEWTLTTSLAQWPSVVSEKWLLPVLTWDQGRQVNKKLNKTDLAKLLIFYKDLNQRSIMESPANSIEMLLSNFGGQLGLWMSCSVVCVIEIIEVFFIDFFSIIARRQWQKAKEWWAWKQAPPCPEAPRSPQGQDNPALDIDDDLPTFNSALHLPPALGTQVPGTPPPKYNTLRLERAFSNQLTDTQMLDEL
Protocol: Human Bronchial Epithelial cells (HBECs) (Cambrex) were cultured under air-liquid interface conditions to provide a well differentiated mucociliary phenotype.
Medium was changed every 48 hours until cells were 90% confluent. […] Cells were maintained submerged for the first 7 days in culture, after which time they were exposed to an apical air interface for the remainder of the culture period. At this time, media was changed to DMEM:F12 media containing 2% v/v Ultroser G for the remainder of culture. Amphotericin B was removed from all media 3 feeds prior to use in the Ussing Chambers. Cells were used between days 7 and 21 after establishment of the apical-air interface. At all stages of culture, cells were maintained at 37° C. in 5% CO2 in an air incubator.
Short Circuit Current (ISC) Measurements
Snapwell inserts were mounted in Vertical Diffusion Chambers (Costar) and were bathed with continuously gassed Ringer solution (5% CO2 in O2; pH 7.4) maintained at 37° C. containing (in mM): 120 NaCl, 25 NaHCO3, 3.3 KH2PO4, 0.8 K2HPO4, 1.2 CaCl2, 1.2 MgCl2, and 10 glucose. The solution osmolarity was between 280 and 300 mOsmol/kg H2O for all physiological salt solutions used. Cells were voltage clamped to 0 mV (model EVC4000; WPI). RT was measured by applying a 1- or 2-mV pulse at 30-s intervals and calculating RT by Ohm's law. Data were recorded using a PowerLab workstation (ADInstruments).
Test compounds were prepared as a 10 mM stock solution in DMSO (95%). Serial 3-fold dilutions were freshly prepared in an appropriate vehicle (distilled H2O or Ringers solution). The initial concentration was added to the apical chamber as a 1000× concentrate in 5 μL, resulting in a final 1× concentration the 5 mL volume of the Ussing chamber. Subsequent additions of compound were added in a 3.3 μL volume of the 1000× serially diluted stock solution. At the completion of the concentration-response experiment, amiloride (10 μM) was added into the apical chamber to enable the total amiloride-sensitive current to be measured. An amiloride control IC50 was established at the start of each experiment.
Results are expressed as the mean % inhibition of the amiloride-sensitive ISC. […] Cell inserts were typically run in duplicate and the IC50 calculated on the mean % inhibition data.

| SMILES | half-life at 1 μM [1] | IC50 [2] |
| --- | --- | --- |
| CCCN(CCC)C(=O)COC(=O)COc1ccc(CCC(=O)N2CCC3(CC2)CN/C(=N\C(=O)c2nc(Cl)c(N)nc2N)N3)cc1Cl [Example 3.0, [2-Chloro-4-(3-{2-[(E)-3,5-diamino-6-chloro-pyrazine-2-carbonylimino]-1,3,8-triaza-spiro[4.5]dec-8-yl}-3-oxo-propyl)-phenoxy]-acetic acid dipropylcarbamoylmethyl ester] | 2 min | 0.011 µM |
| Nc1nc(N)c(C(=O)/N=C2\NCC3(CCN(C(=O)c4cccc(S(=O)(=O)NCCC(=O)OCC(=O)N5CCCC5C(F)(F)F)c4)CC3)N2)nc1Cl (centres unmarked) [Example 4.0, 3-(3-{2-[(E)-3,5-Diamino-6-chloro-pyrazine-2-carbonylimino]-1,3,8-triaza-spiro[4.5]decane-8-carbonyl}-benzenesulfonylamino)-propionic acid 2-oxo-2-(2-trifluoromethyl-pyrrolidin-1-yl)-ethyl ester] | 28 min | 0.101 µM |
| Nc1nc(N)c(C(=O)/N=C2\NCC3(CCN(C(=O)CCc4ccc(OCC(=O)OCCN5CCCCC5=O)c(Cl)c4)CC3)N2)nc1Cl [Example 4.1, [2-Chloro-4-(3-{2-[(E)-3,5-diamino-6-chloro-pyrazine-2-carbonylimino]-1,3,8-triaza-spiro[4.5]dec-8-yl}-3-oxo-propyl)-phenoxy]-acetic acid 2-(2-oxo-piperidin-1-yl)ethyl ester] | 3 min | 0.132 µM |
| Nc1nc(N)c(C(=O)/N=C2\NCC3(CCN(C(=O)CCc4ccc(OCC(=O)OCC(=O)N5CCOCC5)cc4)CC3)N2)nc1Cl [Example 4.2, [4-(3-{2-[(E)-3,5-Diamino-6-chloro-pyrazine-2-carbonylimino]-1,3,8-triaza-spiro[4.5]dec-8-yl}-3-oxo-propyl)-phenoxy]-acetic acid 2-morpholin-4-yl-2-oxo-ethyl ester] | 4 min | 0.45 µM |
| CCCN(CCC)C(=O)COC(=O)C1(CNS(=O)(=O)c2cccc(C(=O)N3CCC4(CC3)CN/C(=N\C(=O)c3nc(Cl)c(N)nc3N)N4)c2)CCC1 [Example 5.0, 1-[(3-{2-[(E)-3,5-Diamino-6-chloro-pyrazine-2-carbonylimino]-1,3,8-triaza-spiro[4.5]decane-8-carbonyl}-benzenesulfonylamino)-methyl]-cyclobutanecarboxylic acid dipropylcarbamoylmethyl ester] | 5 min | 0.012 µM |
| CCCN(CCC)C(=O)COC(=O)CCNC(=O)Nc1cccc(C(=O)N2CCC3(CC2)CN/C(=N\C(=O)c2nc(Cl)c(N)nc2N)N3)c1 [Example 5.1, 3-[3-(3-{2-[(E)-3,5-Diamino-6-chloro-pyrazine-2-carbonylimino]-1,3,8-triaza-spiro[4.5]decane-8-carbonyl}-phenyl)-ureido]-propionic acid dipropylcarbamoylmethyl ester] | 2 min | 0.031 µM |
| Nc1nc(N)c(C(=O)/N=C2\NCC3(CCN(C(=O)c4cccc(S(=O)(=O)NCC5(C(=O)OCC(=O)N6CCCC6C(F)(F)F)CCC5)c4)CC3)N2)nc1Cl (centres unmarked) [Example 5.2, 1-[(3-{2-[(E)-3,5-Diamino-6-chloro-pyrazine-2-carbonylimino]-1,3,8-triaza-spiro[4.5]decane-8-carbonyl}-benzenesulfonylamino)-methyl]-cyclobutanecarboxylic acid 2-oxo-2-(2-trifluoromethyl-pyrrolidin-1-yl)-ethyl ester] | 39 min | 0.019 µM |
